The results in this text go back to patent US6949575B2, “Method of inhibiting amyloid protein aggregation and imaging amyloid deposits using aminoindane derivatives” (Pfizer Inc., priority 2000, dated 2005).

Type in all cases: biochemical
Assay [1] has as its target T1, Aβ (1-42) (Homo sapiens, UniProt P05067).
T1 construct: Required Aβ (1-42) (California Peptide); purchased California Peptide
The assay can be described thus: Batym Assay: Aβ (1-42) aggregation, Thioflavin T fluorescence. As to conditions: Aβ1-42 final 100 μM, 37° C., 1 day, read-out: BAYTM IC50. The method, then: Required Aβ (1-42) (California Peptide) was dried from its HFIP stock solution. The Aβ (1-42) was dissolved in DMSO and then mixed with phosphate buffered saline (PBS) (pH 7.4). The mixed Aβ (1-42) solution was filtered with a Omnipore membrane 0.2-μm syringe filter (Millipore, Bedford, Mass.). The compound to be tested in DMSO (50× concentrate) was put into each well (0.5 μL/well) of a 96-well plate. The Aβ (1-42) solution was added into each well (24.5 μL/well). The plate was centrifuged at 1,000 g for 5 minutes and incubated at 37° C. for 1 day (Aβ1-42; final concentration 100 μM).
After incubation, Thioflavin T (ThT) (30 μM) solution in glycine-NaOH buffer (pH 8.5, 50 mM) was added into each well (250 μL/well), fluorescence was measured (ex=440/20 nm; em=485/20 nm) using a fluorescence plate reader. The inhibitory activity was calculated as the reduction of fluorescence with the following formula: Inhibition (%)={(F(Aβ)−F(Aβ+compound)}/{F(Aβ)−[…]}×100
The IC50s were calculated by a curve fitting program using the following equation. The data were obtained from two different experiments in triplicate. Inhibition (x)=100−100/{1+(x/IC50)^n}. • x=concentration of tested compound (M). • IC50=(M). • n=Hill coefficient.

Assay [2] addresses T2, Soluble Aβ(1-40) (Homo sapiens, UniProt P05067).
T2 construct: Soluble Aβ(1-40)—2.2 mg/mL in deionized H2O
The experiment in a line: BASST (Beta-Amyloid Self-Seeding, Thioflavin T): inhibitors of self-seeded amyloid fibril growth. As to conditions: 30 μM soluble Aβ(1-40), 37° C., 3 to 5 hours, thioflavin T fluorescence. The method, then: • 1) Prepare reaction mixture above by mixing components and storing on ice. • 2) Pipet 14.5 μL of reaction mixture into each of 50 wells on a polypropylene U-bottom 96-well microtiter plate on ice (Costar 3794). • 3) Add 1.7 μL of diluted compound to be tested to each well in a column of eight, including solvent control. Serial 3-fold dilutions from 1 mM (100 μM final) in assay buffer-urea=7 dilutions+zero. Each 96-well plate can therefore accommodate 11 samples+1 Congo Red control (0.039-5 μM final in 2-fold steps). • 4) Seal the plate with aluminum film (Beckman 538619) and incubate for 10 minutes on ice. • 5) Raise the temperature to 37° C. and incubate for 3 to 5 hours (depending on the lot of the peptide). • 6) Remove the aluminum film and add 200 μL/well of ice cold assay buffer with urea, collecting the radiolabeled fibrils by vacuum filtration through 0.2-μm pore size GVWP filters in 96-well plates (Millipore MAGV […], Bedford, Mass.). Determine the radioactivity of the filters using standard methods well-known to those skilled in the art. BASST (Beta-Amyloid Self-Seeding, Thioflavin T) An assay for inhibitors of self-seeded amyloid fibril growth Methods: Materials: Stock Solutions: Assay Buffer-50 mM sodium phosphate, pH 7.5, 100 mM NaCl, 0.02% NaN3, 1 M urea (filter and store at 4° C.) Soluble Aβ(1-40)-2.2 mg/mL in deionized H2O (store in aliquots at -20° C., keep on ice when thawed) will self-seed after 1 week storage. Typically, the solution should be stored until no lag phase is seen in the assay. Final assay conditions: 30 μM soluble Aβ(1-40) in deionized water in assay buffer. Compound to be tested is dissolved in DMSO, typically 5 to 50 mM stock, such that the final concentration of DMSO is <1% v/v in the assay. Assay: Reaction mixture for 50 assays (on ice) comprised of 1 μL of soluble Aβ(1-40)+13.5 μL assay buffer per assay. The following are the amounts of the components of the reaction mixture that result in each of the 50 assay wells. 50 μL soluble Aβ(1-40) 675 μL assay buffer Assay Method • 1) Prepare the reaction mix above by mixing the components and storing on ice. • 2) Pipet 14.5 μL of reaction mixture into each of 50 wells of a polystyrene U-bottom 96-well microtiter plate (Coming 25881-96) on ice. • 3) Add 1.7 μL of diluted compound to be tested to each well in a column of eight, including solvent control. Serial 3-fold dilutions from 1 mM (100 μM final) in assay buffer-urea=7 dilutions+zero. Each 96-well plate can therefore accommodate 11 samples+1 Congo Red control (0.039-5 μM final in 2-fold steps). • 4) Seal the plate with aluminum film and incubate for 10 minutes on ice. • 5) Raise the temperature to 37° C. and incubate for 3 to 5 hours (depends on the lot of the peptide). • 6) Remove the aluminum film and add 250 μL/well of 5 μM thioflavin T (ThT) [T-3516, Sigma-Aldrich] in 50 mM glycine-NaOH, pH 8.5. Read fluorescence on a plate reader (ex=440 nm/20 nm; em=485 nm/20 nm) within 5 minutes. BAPA (Beta-Amyloid Peptide Aggregation)

Assay [3] has as its target T3, Aβ (1-40) peptide (Homo sapiens, UniProt P05067).
T3 construct: Aβ (1-40) peptide in 20% HFIP
The experiment in a line: BAPA (Beta-Amyloid Peptide Aggregation, pH 6.0), filtration endpoint. To be noted: Aβ(1-40) 33 μM, pH 6.0, 2 to 4 hours, room temperature. The method, then:
• 1) Prepare the reaction mix above by mixing the components and storing on ice. • 2) Pipet 14.5 μL of reaction mixture into each of 50 wells of a polystyrene U-bottom 96-well microtiter plate (Coming 25881-96) on ice. • 3) Add 1.7 μL of diluted compound to be tested to each well in a column of eight, including solvent control. Serial 3-fold dilutions from 1 mM (100 μM final) in assay buffer-urea=7 dilutions+zero. Each 96-well plate can therefore accommodate 11 samples+1 Congo Red control (0.039-5 μM final in 2-fold steps). • 4) Seal the plate with aluminum film and incubate for 10 minutes on ice. • 5) Raise the temperature to 37° C. and incubate for 3 to 5 hours (depends on the lot of the peptide). • 6) Remove the aluminum film and add 250 μL/well of 5 μM thioflavin T (ThT) [T-3516, Sigma-Aldrich] in 50 mM glycine-NaOH, pH 8.5. Read fluorescence on a plate reader (ex=440 nm/20 nm; em=485 nm/20 nm) within 5 minutes. BAPA (Beta-Amyloid Peptide Aggregation) This assay is used to provide a measure of inhibition by a compound against the aggregation behavior of the β-amyloid peptide. The purpose of this assay is to provide a higher volume method of assaying the amount of β-amyloid aggregation using an endpoint assay based on filtration. In this assay, hexafluoroisopropanol (HFIP) is used to break down the initial amyloid peptide to a monomer state and use a concentration of 33 μM which is high enough so that aggregation will occur at pH 6.0 in several hours. Methods: Beta-Amyloid Peptide Aggregation, pH 6.0 (BAPA) In a 96-well plate (Costar 3794), we add 25 μL 50 mM phosphate buffer, pH 6.0, 10 μL 0.5 mg/mL Aβ (1-40) peptide in 20% HFIP+0.1 μL/assay radioiodinated ^125I Aβ (1-40) [^125I Aβ(1-40)], and 1 μL of the compound to be tested starting at 50 mM with a concentration of DMSO<1%. Then, we incubate for 2 to 4 hours at room temperature. We stop the reaction with 200 μL of 50 mM phosphate buffer, pH 6.0, and filter it through a 0.2 μm 96-well filter plate (Millipore MAGU […]). We wash the filter plate with 100 μL of the same phosphate buffer. Aggregation was detected on a Microbeta counter after impregnating the filters with Meltilex (1450-441) and is corrected for background.

Assay [4] concerns the target T4, Soluble Aβ(1-40) peptide (Homo sapiens, UniProt P05067).
T4 construct: Soluble Aβ(1-40) peptide; purchased Bachem, Torrance, Calif
The assay can be described thus: BASSR (Beta-Amyloid Self-Seeding Radioassay): inhibitors of self-seeded amyloid fibril growth. As to conditions: 30 μM soluble Aβ(1-40) + 125I-labeled Aβ(1-40), 37° C., 3 to 5 hours, filtration; replicate values. As for the experimental part: BASSR (Beta-Amyloid Self-Seeding Radioassay)
An assay for inhibitors of self-seeded amyloid fibril growth
Assay Buffer—[…] sodium phosphate, pH 7.5, 100 mM NaCl, 0.02% NaN3, 1 M urea (filter and store at 4° C.)
Soluble Aβ(1-40) peptide (Bachem, Torrance, Calif.)—2.2 mg/mL in deionized H2O (stored in aliquots at −20° C., keep on ice when thawed) will self-seed after 1 week storage. Typically, the solution should be stored until no lag phase is seen in the assay.
^125I-labeled Aβ(1-40)—150 to 350K cpm/μL in 100% acetonitrile—0.1% trifluoroacetic acid (TFA)—1% β-mercaptoethanol (aliquots stored at −20° C.). ^125I-labeled Aβ(1-40) can be made in accordance with the procedure set forth by H. Levine, III in Neurobiol. Aging, 16:755 (1995), which is hereby incorporated by reference, or this reagent may be purchased from Amersham, Arlington Heights, Ill. Final assay conditions: 30 μM soluble Aβ(1-40) in deionized water in assay buffer+20 to 50K cpm ^125I-labeled Aβ(1-40) per assay. Compound to be tested is dissolved in dimethylsulfoxide (DMSO), typically 5 to 50 mM stock, such that the final concentration of DMSO is <1% v/v in the assay. Assay: Reaction mixture for 50 assays (on ice) is comprised of 0.1 to 0.2 μL of ^125I-labeled A^125I-labeled Aβ(1-40)+1 μL of soluble Aβ(1-40)+13.5 μL assay buffer per assay. The following are the amounts of the components of the reaction mixture sufficient for 50 assay wells.
• 1) Prepare reaction mixture above by mixing components and storing on ice. • 2) Pipet 14.5 μL of reaction mixture into each of 50 wells on a polypropylene U-bottom 96-well microtiter plate on ice (Costar 3794). • 3) Add 1.7 μL of diluted compound to be tested to each well in a column of eight, including solvent control. Serial 3-fold dilutions from 1 mM (100 μM final) in assay buffer-urea=7 dilutions+zero. Each 96-well plate can therefore accommodate 11 samples+1 Congo Red control (0.039-5 μM final in 2-fold steps). • 4) Seal the plate with aluminum film (Beckman 538619) and incubate for 10 minutes on ice. • 5) Raise the temperature to 37° C. and incubate for 3 to 5 hours (depending on the lot of the peptide). • 6) Remove the aluminum film and add 200 μL/well of ice cold assay buffer with urea, collecting the radiolabeled fibrils by vacuum filtration through 0.2-μm pore size GVWP filters in 96-well plates (Millipore MAGV N22, Bedford, Mass.). Determine the radioactivity of the filters using standard methods well-known to those skilled in the art. BASST (Beta-Amyloid Self-Seeding, Thioflavin T)

Values joined by “and” are separate entries in the source; they are usually repeats but may differ in a detail not shown here. Identical values can stand only once.

T1 sequence (P05067 672-713 limits assumed): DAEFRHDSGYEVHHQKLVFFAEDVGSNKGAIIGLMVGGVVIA
T2 sequence (P05067 672-711 limits assumed): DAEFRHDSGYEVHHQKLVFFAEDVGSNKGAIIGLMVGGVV
T3 sequence (P05067 672-711 limits assumed): as above
T4 sequence (P05067 672-711 limits assumed): as above

As to `O=C(O)c1cc([N+](=O)[O-])ccc1Nc1ccc2c(c1)CC(NCc1ccc(Cl)c(Cl)c1)C2` (centres unmarked) [Example 4, 2-[2-(3,4-Dichlorobenzylamino)-indan-5-ylamine]-5-nitro-benzoic Acid], the IC50 in assay [1] is 16 µM; in assay [2], 1.1 µM; in assay [3], 28 µM.
With `O=C(O)c1cc([N+](=O)[O-])ccc1NC1Cc2ccc(Nc3ccc(Cl)c(Cl)c3)cc2C1` (centres unmarked) [Example 9, 2-[5-(3,4-Dichlorophenylamino)-indan-2-ylamino]-5-nitro-benzoic acid], the IC50 was 0.25 µM in assay [2] and 5 µM in assay [3].
Consider `O=C(O)c1cc([N+](=O)[O-])ccc1Nc1ccc2c(c1)CC(N(Cc1ccc(F)cc1)Cc1ccc(F)cc1)C2` (centres unmarked) [Example 11, 2-{2-[bis-(4-Fluorobenzyl)amino]indan-5-ylamino}-5-nitro-benzoic acid], for which the 50% inhibitory concentration (IC50) in assay [1] was 7 µM and 12 µM; in assay [2], 1 µM; in assay [3], 7 µM.
Take `O=C(O)c1ccccc1Nc1ccc2c(c1)CC(NCc1ccc(Cl)c(Cl)c1)C2` (centres unmarked) [Example 3, 2-[2-(3,4-Dichlorobenzylamino)-indane-5-ylamino]-benzoic acid]: the IC50 in assay [4] was above 100 µM; in assay [1] it was above 100 µM; in assay [2], 40 µM.

By IC50 is commonly meant the concentration that inhibits the measured activity by half.
